Measurements from the supplement of paper PMC10307832.

Tests used:
Test in all cases: relative viability (nuclei count vs DMSO), 5 days (fraction); higher = more cells survive
Idelalisib + Pictilisib = compound: CC[C@H](Nc1ncnc2[nH]cnc12)c1nc2cccc(F)c2c(=O)n1-c1ccccc1 [Idelalisib] + CS(=O)(=O)N1CCN(Cc2cc3nc(-c4cccc5[nH]ncc45)nc(N4CCOCC4)c3s2)CC1 [Pictilisib] (partner 1 µM)
Outline: (§1)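 Lung cancer cell lines in 1536-well plates got either a single drug or a fixed anchor-drug dose together with five library-drug doses (not always all listed) in √10 steps, by pin tool, on the day after seeding. Nuclei were counted after 5 days, and relative viability is the treated-to-vehicle ratio of nuclei counts. Values are medians of duplicate plates.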

Pemetrexed + Trametinib = compound: Nc1nc2[nH]cc(CCc3ccc(C(=O)N[C@@H](CCC(=O)O)C(=O)O)cc3)c2c(=O)[nH]1 [Pemetrexed] + CC(=O)Nc1cccc(-n2c(=O)n(C3CC3)c(=O)c3c(Nc4ccc(I)cc4F)n(C)c(=O)c(C)c32)c1 [Trametinib] (partner 0.02 µM)
Outline: as §1

Pemetrexed + Olaparib = compound: Nc1nc2[nH]cc(CCc3ccc(C(=O)N[C@@H](CCC(=O)O)C(=O)O)cc3)c2c(=O)[nH]1 [Pemetrexed] + O=C(c1cc(Cc2n[nH]c(=O)c3ccccc23)ccc1F)N1CCN(C(=O)C2CC2)CC1 [Olaparib] (partner 8 µM)
Outline: as §1

Pemetrexed + Alpelisib = compound: Nc1nc2[nH]cc(CCc3ccc(C(=O)N[C@@H](CCC(=O)O)C(=O)O)cc3)c2c(=O)[nH]1 [Pemetrexed] + Cc1nc(NC(=O)N2CCC[C@H]2C(N)=O)sc1-c1ccnc(C(C)(C)C(F)(F)F)c1 [Alpelisib] (partner 2 µM)
Outline: as §1

Cell Line	relative viability (Idelalisib + Pictilisib; first compound 0.04 µM)	relative viability (Idelalisib + Pictilisib; first compound 0.1265 µM)	relative viability (Idelalisib + Pictilisib; first compound 0.4 µM)	relative viability (Idelalisib + Pictilisib; first compound 1.265 µM)	relative viability (Idelalisib + Pictilisib; first compound 4 µM)	relative viability (Pemetrexed + Trametinib; first compound 0.002 µM)	relative viability (Pemetrexed + Trametinib; first compound 0.006325 µM)	relative viability (Pemetrexed + Trametinib; first compound 0.02 µM)	relative viability (Pemetrexed + Trametinib; first compound 0.06325 µM)	relative viability (Pemetrexed + Trametinib; first compound 0.2 µM)	relative viability (Pemetrexed + Olaparib; first compound 0.002 µM)	relative viability (Pemetrexed + Olaparib; first compound 0.006325 µM)	relative viability (Pemetrexed + Olaparib; first compound 0.02 µM)	relative viability (Pemetrexed + Olaparib; first compound 0.06325 µM)	relative viability (Pemetrexed + Olaparib; first compound 0.2 µM)	relative viability (Pemetrexed + Alpelisib; first compound 0.002 µM)	relative viability (Pemetrexed + Alpelisib; first compound 0.006325 µM)	relative viability (Pemetrexed + Alpelisib; first compound 0.02 µM)	relative viability (Pemetrexed + Alpelisib; first compound 0.06325 µM)	relative viability (Pemetrexed + Alpelisib; first compound 0.2 µM)
201T	0.686	0.712	0.59	0.736	0.661	0.745	0.713	0.706	0.735	0.724	0.791	0.85	0.841	0.878	0.839	1.07	1.05	1.03	1	0.955
A549	0.412	0.516	0.409	0.468	0.371						0.29	0.292	0.379	0.338	0.343	0.695	0.682	0.946	0.785	0.774
A-427	0.871	0.789	0.826	0.743	0.724	0.785	0.794	0.794	0.696	0.733	0.758	0.765	0.775	0.759	0.711	1.09	1.1	1.05	1.1	1.04
ABC-1	0.726	0.771	0.566	0.813	0.723						0.839	0.867	0.985	0.875	0.865	1.13	0.937	1.28	1.03	0.87
BEN	0.559	0.517	0.531	0.609	0.523	1.19	0.942	1.08	0.884	1.05	1.07	1.01	1.05	0.97	0.891	1.09	1.02	1.03	0.989	0.774
CAL-12T	0.382	0.47	0.257	0.43	0.417	0.332	0.329	0.328	0.347	0.331	0.706	0.616	0.804	0.694	0.692	1.03	0.976	1.11	1.15	1.05
COR-L23	0.674	0.8	0.514	0.8	0.777	0.581	0.569	0.733	0.206	0.152	0.28	0.406	0.36	0.253	0.152	0.803	0.719	0.72	0.259	0.176
COR-L 105	0.555	0.418	0.399	0.463	0.31	0.442	0.423	0.47	0.479	0.453	0.706	0.74	0.746	0.738	0.662	0.93	0.708	1.08	0.891	0.909
Calu-6	1.05	0.947	0.934	0.902	0.865							0.525	0.646	0.524	0.578	0.995	1.01	1.05	0.918	0.954
ChaGo-K-1	0.788	0.608	0.797	0.796	0.791	0.902	0.848	0.871	0.662	0.31	0.483	0.423	0.464	0.383	0.259					
EBC-1	0.399	0.42	0.343	0.368	0.209						0.684	0.714	0.723	0.665	0.545	0.747	0.848	0.939	0.836	0.518
EKVX	0.498	0.456	0.384	0.356	0.447	0.337	0.327	0.37	0.297	0.218	0.794	0.796	0.884	0.883	0.499	0.827	0.89	0.943	0.827	0.615
EMC-BAC-2	0.563	0.569	0.475	0.59	0.492	0.826	0.755	0.986	0.807	0.618	0.455	0.458	0.5	0.493	0.497	0.795	0.676	0.801	0.738	0.693
EPLC-272H	0.299	0.313	0.236	0.402	0.316	0.33	0.27	0.385	0.305	0.227	0.592	0.835	1.01	0.564	0.271	0.876	0.938	1.11	0.962	0.847
H3255	0.416	0.442	0.44	0.436	0.404	0.517	0.581	0.673	0.55	0.515	0.563	0.602	0.586	0.573	0.519		0.656	0.736	0.606	0.632
HARA	0.376	0.409	0.287	0.403	0.266	0.592	0.395	0.797	0.41	0.17	0.758	0.859	0.834	0.606	0.182	0.822	0.814	0.862	0.799	0.275
HCC-15	0.762	0.748	0.662	0.866	0.728	0.371	0.344	0.392	0.336	0.218	0.644	0.724	0.804	0.601	0.353	0.821	0.847	0.867	0.666	0.519
